Molecular target: T1, NR2B receptor (Rattus norvegicus, UniProt P35439+Q00960)
T1 construct: NMDA, Polyamine source: Wistar Rat cerebral cortex; from tissue; host or cells: Wistar rat cerebral cortex
Experiment: In vitro affinity measurement, [^3H]Ifenprodil radioligand binding (NMDA, Polyamine)
Conditions: Wistar Rat cerebral cortex; ligand [^3H]Ifenprodil; 2 hours at 4° C.; six concentrations tested in duplicate

T1 sequence (Q00960 27-1482, other chains not shown): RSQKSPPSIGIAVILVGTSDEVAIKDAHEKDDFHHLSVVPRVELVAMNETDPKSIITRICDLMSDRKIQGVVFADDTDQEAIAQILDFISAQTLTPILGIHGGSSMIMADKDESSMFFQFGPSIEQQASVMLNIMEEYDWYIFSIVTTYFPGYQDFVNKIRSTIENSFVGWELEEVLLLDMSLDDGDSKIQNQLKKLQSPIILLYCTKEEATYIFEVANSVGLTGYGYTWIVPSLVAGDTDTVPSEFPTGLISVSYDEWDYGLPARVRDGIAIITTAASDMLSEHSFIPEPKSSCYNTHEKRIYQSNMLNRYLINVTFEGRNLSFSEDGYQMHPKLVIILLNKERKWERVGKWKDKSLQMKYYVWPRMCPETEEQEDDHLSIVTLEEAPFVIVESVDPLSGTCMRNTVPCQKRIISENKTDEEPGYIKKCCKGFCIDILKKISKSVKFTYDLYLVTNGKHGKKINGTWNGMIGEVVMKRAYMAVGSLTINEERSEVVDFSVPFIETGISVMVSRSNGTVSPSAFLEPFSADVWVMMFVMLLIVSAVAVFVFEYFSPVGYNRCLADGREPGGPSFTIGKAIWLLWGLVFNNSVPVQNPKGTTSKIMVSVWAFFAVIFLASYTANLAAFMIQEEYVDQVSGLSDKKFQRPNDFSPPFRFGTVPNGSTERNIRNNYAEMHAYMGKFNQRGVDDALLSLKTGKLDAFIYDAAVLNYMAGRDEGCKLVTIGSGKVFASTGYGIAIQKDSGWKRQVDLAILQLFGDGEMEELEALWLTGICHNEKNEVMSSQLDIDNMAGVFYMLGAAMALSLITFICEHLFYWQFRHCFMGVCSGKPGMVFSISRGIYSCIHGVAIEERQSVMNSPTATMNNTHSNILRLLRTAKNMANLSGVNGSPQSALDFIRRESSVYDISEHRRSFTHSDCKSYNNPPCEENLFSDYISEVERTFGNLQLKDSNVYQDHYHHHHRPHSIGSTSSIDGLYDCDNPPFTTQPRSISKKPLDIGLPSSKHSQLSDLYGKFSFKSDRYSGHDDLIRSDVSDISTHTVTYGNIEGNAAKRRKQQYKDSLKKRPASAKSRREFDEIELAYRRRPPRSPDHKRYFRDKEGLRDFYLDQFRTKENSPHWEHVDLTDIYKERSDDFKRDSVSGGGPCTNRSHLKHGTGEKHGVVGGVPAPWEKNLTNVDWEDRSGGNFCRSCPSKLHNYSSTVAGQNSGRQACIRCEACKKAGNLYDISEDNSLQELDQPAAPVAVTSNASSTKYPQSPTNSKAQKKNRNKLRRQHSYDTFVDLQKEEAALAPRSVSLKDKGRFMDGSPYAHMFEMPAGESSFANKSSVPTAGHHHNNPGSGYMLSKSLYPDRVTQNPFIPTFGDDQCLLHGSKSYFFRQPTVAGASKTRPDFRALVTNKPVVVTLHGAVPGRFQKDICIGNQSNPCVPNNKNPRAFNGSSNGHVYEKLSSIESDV

Structure (SMILES) | Ki [nM]
COc1cccc(CNC(=N)c2ccc(OC(F)(F)F)cc2)c1OC [EA7, N-(2,3-dimethoxybenzyl)-4-trifluoromethoxyphenyl amidine] | > 100
COc1cc(CNC(=N)c2ccc(OC(F)(F)F)cc2)c(OC)cc1Cl [EA8, N-(2,5-dimethoxy-4-chlorobenzyl)-4-trifluoromethoxyphenyl amidine] | < 11
COc1cc(Cl)cc(CNC(=N)c2ccc(OC(F)(F)F)cc2)c1 [EA11, N-(3-methoxy-5-chlorobenzyl)-4-trifluoromethoxyphenyl amidine] | < 11
COc1ccccc1CNC(=N)c1ccc(I)cc1 [EA12, N-(2-methoxybenzyl)-4-iodophenyl amidine] | < 11
N=C(NCc1cccc(Cl)c1)c1ccc(I)cc1 [EA13, N-(3-chlorobenzyl)-4-iodophenyl amidine] | < 11
N=C(NCc1cc(Cl)cc(OCCF)c1)c1ccc(OC(F)(F)F)cc1 [EA15, N-(3-(2-fluoroethoxy)-5-chlorobenzyl)-4-trifluoromethoxyphenyl amidine] | < 11
N=C(NCc1cc(Br)ccc1OCCF)c1ccc(OC(F)(F)F)cc1 [EA16] | < 11

Continued, values first:

Ki [nM] | Structure (SMILES)
< 11 | COc1cc(CNC(=N)c2ccc(OC(F)(F)F)cc2)cc(OC)c1 [EA4, N-(3,5-dimethoxybenzyl)-4-trifluoromethoxyphenyl amidine]
< 11 | COc1ccc(OC)c(CNC(=N)c2ccc(OC(F)(F)F)cc2)c1 [EA5, N-(2,5-dimethoxybenzyl)-4-trifluoromethoxyphenyl amidine]
< 2 | COc1cccc(OC)c1CNC(=N)c1ccc(OC(F)(F)F)cc1 [EA6, N-(2,6-dimethoxybenzyl)-4-trifluoromethoxyphenyl amidine]
< 2 | COc1ccc(Cl)cc1CNC(=N)c1ccc(OC(F)(F)F)cc1 [EA9, N-(2-methoxy-5-chlorobenzyl)-4-trifluoromethoxyphenyl amidine]
< 2 | COc1ccc(Br)cc1CNC(=N)c1ccc(OC(F)(F)F)cc1 [EA10, N-(2-methoxy-5-bromobenzyl)-4-trifluoromethoxyphenyl amidine]
< 2 | N=C(NCc1cc(Cl)cc(Cl)c1)c1ccc(I)cc1 [EA14, N-(3,5-dichlorobenzyl)-4-iodophenyl amidine]
